According to US7662819B2, “Pteridinone derivatives for use as stearoyl CoA desaturase inhibitors” (Gilead Palo Alto, Inc., priority 2007, dated 2010):

Biological target: T1, stearoyl-CoA desaturase (SCD) (Rattus norvegicus, UniProt P07308)
T1 construct: from tissue; host or cells: liver microsomes of male Sprague Dawley rats, with SCD induced by a carbohydrate-rich diet after fasting/feeding cycles
T1 sequence (P07308 1-358): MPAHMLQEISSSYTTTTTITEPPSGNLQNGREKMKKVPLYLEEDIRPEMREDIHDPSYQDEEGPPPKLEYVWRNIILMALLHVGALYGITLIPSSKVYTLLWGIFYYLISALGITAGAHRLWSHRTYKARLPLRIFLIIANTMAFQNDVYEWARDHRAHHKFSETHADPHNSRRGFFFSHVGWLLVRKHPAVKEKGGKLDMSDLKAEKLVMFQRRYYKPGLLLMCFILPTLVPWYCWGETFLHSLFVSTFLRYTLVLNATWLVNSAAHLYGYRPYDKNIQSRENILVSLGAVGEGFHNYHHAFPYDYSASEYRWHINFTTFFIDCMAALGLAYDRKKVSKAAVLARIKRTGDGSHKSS
Assay: SCD assay in rat liver microsomes ([3H]stearoyl CoA desaturation, adapted from Talamo and Bloch)
Format: biochemical
Details: rat liver microsomes 0.2 mg/ml assay final, 30 min preincubation, 45 min reaction, room temperature
Excerpt: The identification of compounds of the invention as SCD inhibitors was readily accomplished using the SCD enzyme and microsomal assay procedure described in Talamo and Bloch (1969) Analytical Biochemistry 29:300-304.
The rat liver microsomes were collected according to the procedure described in Ozols (1990) Methods Enzm, 182:225.
Male Spraque Dawley Rats were placed on regimented fasting protocol for one week to stimulate SCD enzymatic activity. 48-hour periods were alternated between feeding and fasting to induce and down-regulate SCD activity with SCD activity being induced via carbohydrate rich diet prior to liver perfusion and collection.
The rats were anesthetized with Isoflurane inhalation anesthetic, the liver perfused with cold phosphate buffered saline (PBS), weighed, and chilled in cold homogenization buffer (250 mM sucrose, 10 mM Tris, 1 mM EDTA, pH 7.6.
The livers were finely minced and placed in homogenization tube. 40 mL of homogenization buffer was added to the homogenization tube and the liver homogenized and centrifuged in a pre-chilled […] for 10 min at 4° C.
Following centrifugation, the supernatant was collected and the pellet removed and discarded. The supernatant was centrifuge at 10,000 G for 35 minutes. Following centrifugation, the supernatant was collect and the pellet discarded. The supernatant was then centrifuged in a pre-chilled 45-Ti rotor at 130,000 G (41,000 RPM) for 90 minutes at 4° C.
The supernatant was then aspirated off and the collected microsomal pellet washed in 25 mL of Glycerol PBS (1×PBS 7.4, 20% Glycerol) and resuspended in 4-5 volumes of Glycerol PBS.
The protein concentration of the microsomal preparation was determined by BCA assay (Pierce) and the microsomes were aliquoted and stored at −80° C.
Biobeads were ground to a smaller size in a mortar and pestle and resuspended in 3.6% TCA. The beads were then filtered through […] mesh.
SCD was determined in the desaturase assay buffer. This assay buffer contained 0.1 M Tris buffer, pH 7.2, 2 mM NADH, 4.8 mM ATP, 0.5 mM CoA, 4.8 mM MgCl2, and 0.1% BSA.
The Procedure for the SCD Assay (Adapted from Talamo and Bloch (1969) Analytical Biochemistry 29:300-304)
1 μl of each compound of Formula I was added to an assay plate by a low volume (0.5-10 μL) multichannel pipette. A DMSO control was also prepared. The microsomes were quickly thawed and added to assay buffer so that a concentration of 0.4 mg/ml was achieved (0.2 mg/ml assay final). 50 μl of the microsome suspension in assay buffer was then added into each well in the compound assay plate, the plate was covered, and the microsomes preincubated with the compounds for 30 minutes on the orbital shaker, 50-75 rpm, at room temperature.
After preincubation, the reaction was initiated by the addition of 50 μl of substrate solution (20 μM Stearoyl CoA, [3H]Stearoyl CoA, 74 nCi) to the preincubated microsomes/compound suspensions in MilliQ (Millipore) H2O. The reaction mixtures were then incubated for 45 minutes on the orbital shaker at 50-75 rpm at room temperature.
The reaction was terminated by the addition of 10 μl of 21% […] (TCA) to the reaction mixture followed incubation on the orbital shaker for 30 minutes at 50-75 rpm at room temperature followed by centrifugation for 5 minutes at 3700 rpm.
50 μl of a 6% Bio-Bead suspension in H2O was added to the reaction mixture and the assay plate was sealed. The Bio-Bead mixture was incubated on the orbital shaker for 1 hour, 100-150 rpm at room temperature, and then the mixture was centrifuged at 2000 g for 5 minutes to pellet the Bio-Beads.
25 μl of the supernatant was harvested from each well and transferred to a detection plate. 100 μl of OptiPhase SuperMix scinitillation cocktail (containing sufficient NaOH to neutralize the TCA) was added and the solutions mixed by vigorous shaking (300-400 rpm) for 5 minutes at room temperature. […]

Row | Structure (SMILES) | IC50 [nM]
1 | O=C(NCCn1c(=O)cnc2cnc(NCc3ccc(Cl)c(Cl)c3)nc21)c1ccccc1 [Compound 34, N-[2-(2-{[(3,4-dichlorophenyl)methyl]amino}-7-oxo(8-hydropteridin-8-yl))ethyl]benzamide] | 2720
2 | COc1ccc(-c2nc3cnc(NCc4ccc(Cl)c(Cl)c4)nc3n(CCNC(=O)c3cccc(F)c3)c2=O)cc1 [Compound 42, N-[2-(2-{[(3,4-dichlorophenyl)methyl]amino}-6-(4-methoxyphenyl)-7-oxo(8-hydropteridin-8-yl))ethyl](3-fluorophenyl)carboxamide] | 2250
3 | C/C=C/C(=O)NCCn1c(=O)c(-c2ccc(OC)cc2)nc2cnc(NCc3ccc(Cl)c(Cl)c3)nc21 [Compound 40, (2E)—N-[2-(2-{[(3,4-dichlorophenyl)methyl]amino}-6-(4-methoxyphenyl)-7-oxo(8-hydropteridin-8-yl))ethyl]but-2-enamide] | 470
4 | COc1ccc(-c2nc3cnc(NCc4ccc(Cl)c(Cl)c4)nc3n(CCNS(C)(=O)=O)c2=O)cc1 [Compound 2, 2-{[(3,4-dichlorophenyl)methyl]amino}-6-(4-methoxyphenyl)-8-{2-[(methylsulfonyl)amino]ethyl}-8-hydropteridin-7-one] | 2800
5 | COc1ccc(-c2nc3cnc(NCc4ccc(Cl)c(Cl)c4)nc3n(CCNC=O)c2=O)cc1 [Compound 41, N-[2-(2-{[(3,4-dichlorophenyl)methyl]amino}-6-(4-methoxyphenyl)-7-oxo-8-hydropteridin-8-yl)ethyl]carboxamide] | 260
6 | COc1ccc(-c2nc3cnc(NCc4ccc(Cl)c(Cl)c4)nc3n(CCNC(=O)c3ccc(F)cc3)c2=O)cc1 [Compound 29, N-[2-(2-{[(3,4-dichlorophenyl)methyl]amino}-6-(4-methoxyphenyl)-7-oxo(8-hydropteridin-8-yl))ethyl](4-fluorophenyl)carboxamide] | 430
7 | O=c1c(-c2cccnc2)nc2cnc(NCc3ccc(Cl)c(Cl)c3)nc2n1CCn1cncn1 [Compound 15, 2-{[(3,4-dichlorophenyl)methyl]amino}-6-(3-pyridyl)-8-(2-(1,2,4-triazolyl)ethyl)-8-hydropteridin-7-one] | 5800
8 | COc1ccc(-c2nc3cnc(NCc4cccc(Cl)c4)nc3n(CCNC(C)=O)c2=O)cc1 [Compound 24, N-[2-(2-{[(3-chlorophenyl)methyl]amino}-6-(4-methoxyphenyl)-7-oxo-8-hydropteridin-8-yl)ethyl]acetamide] | 1300
9 | COc1ccc(-c2nc3cnc(NCc4ccc(Cl)c(Cl)c4)nc3n([C@@H]3CCNC3)c2=O)cc1 [Compound 3, 8-((3R)pyrrolidin-3-yl)-2-{[(3,4-dichlorophenyl)methyl]amino}-6-(4-methoxyphenyl)-8-hydropteridin-7-one] | 5000
10 | CC(=O)NCCn1c(=O)c(-c2cccnc2)nc2cnc(NCc3ccccc3)nc21 [Compound 9, N-(2-{7-oxo-2-[benzylamino]-6-(3-pyridyl)-8-hydropteridin-8-yl}ethyl)acetamide] | 2600
11 | CC(=O)NCCn1c(=O)c(C(F)(F)F)nc2cnc(NCc3ccc(Cl)c(Cl)c3)nc21 [Compound 13, N-[2-(2-{[(3,4-dichlorophenyl)methyl]amino}-7-oxo-6-(trifluoromethyl)-8-hydropteridin-8-yl)ethyl]acetamide] | 2100
12 | COc1ccc(-c2nc3cnc(NCc4ccc(Cl)c(Cl)c4)nc3n(CCNC(=O)c3cccnc3)c2=O)cc1 [Compound 4, N-[2-(2-{[(3,4-dichlorophenyl)methyl]amino}-6-(4-methoxyphenyl)-7-oxo(8-hydropteridin-8-yl))ethyl]-3-pyridylcarboxamide] | 1600

Further compounds by falling IC50, results first:

Row | IC50 [nM] | Structure (SMILES)
13 | 21900 | CC(=O)NCCn1c(=O)cnc2cnc(NCc3ccc(Cl)cc3)nc21 [Compound 28, N-[2-(2-{[(4-chlorophenyl)methyl]amino}-7-oxo-8-hydropteridin-8-yl)ethyl]acetamide]
14 | 18000 | CCCC(=O)NCCn1c(=O)c(-c2ccc(OC)cc2)nc2cnc(NCc3ccc(Cl)c(Cl)c3)nc21 [Compound 5, N-[2-(2-{[(3,4-dichlorophenyl)methyl]amino}-6-(4-methoxyphenyl)-7-oxo-8-hydropteridin-8-yl)ethyl]butanamide]
15 | 11000 | COc1ccc(-c2nc3cnc(NCc4ccc(Cl)c(Cl)c4)nc3n(CCNC(=N)N)c2=O)cc1 [Compound 16, amino[2-(2-{[(3,4-dichlorophenyl)methyl]amino}-6-(4-methoxyphenyl)-7-oxo(8-hydropteridin-8-yl))ethyl]carboxamidine]
16 | 10000 | CC(=O)NCCn1c(=O)cnc2cnc(NCc3cccc(Cl)c3)nc21 [Compound 25, N-[2-(2-{[(3-chlorophenyl)methyl]amino}-7-oxo-8-hydropteridin-8-yl)ethyl]acetamide]
17 | 7800 | CC(=O)NCCn1c(=O)c(-c2ccc(Cl)cc2)nc2cnc(NCc3cccc(Cl)c3)nc21 [Compound 26, N-[2-(6-(4-chlorophenyl)-2-{[(3-chlorophenyl)methyl]amino}-7-oxo-8-hydropteridin-8-yl)ethyl]acetamide]
18 | 3270 | COc1ccc(-c2nc3cnc(NCc4ccc(Cl)c(Cl)c4)nc3n(CCNC(=O)c3cccc(C)c3)c2=O)cc1 [Compound 30, N-[2-(2-{[(3,4-dichlorophenyl)methyl]amino}-6-(4-methoxyphenyl)-7-oxo(8-hydropteridin-8-yl))ethyl](3-methylphenyl)carboxamide]
19 | 2800 | COc1ccc(-c2nc3cnc(NCc4ccc(Cl)c(Cl)c4)nc3n(CCNC(=O)c3ccncc3)c2=O)cc1 [Compound 39, N-[2-(2-{[(3,4-dichlorophenyl)methyl]amino}-6-(4-methoxyphenyl)-7-oxo(8-hydropteridin-8-yl))ethyl]-4-pyridylcarboxamide]
20 | 2800 | CCC(=O)NCCn1c(=O)c(-c2ccc(OC)cc2)nc2cnc(NCc3ccc(Cl)c(Cl)c3)nc21 [Compound 6, N-[2-(2-{[(3,4-dichlorophenyl)methyl]amino}-6-(4-methoxyphenyl)-7-oxo-8-hydropteridin-8-yl)ethyl]propanamide]
21 | 2260 | COc1ccc(-c2nc3cnc(NCc4ccc(Cl)c(Cl)c4)nc3n(CCNC(=O)c3ccco3)c2=O)cc1 [Compound 31, N-[2-(2-{[(3,4-dichlorophenyl)methyl]amino}-6-(4-methoxyphenyl)-7-oxo(8-hydropteridin-8-yl))ethyl]-2-furylcarboxamide]
22 | 340 | CC(=O)NCCn1c(=O)cnc2cnc(NCc3ccc(Cl)c(Cl)c3)nc21 [Compound 17, N-[2-(2-{[(3,4-dichlorophenyl)methyl]amino}-7-oxo-8-hydropteridin-8-yl)ethyl]acetamide]
23 | 230 | CC(=O)NCCn1c(=O)c(-c2cccnc2)nc2cnc(NCc3ccc(Cl)c(Cl)c3)nc21 [Compound 12, N-[2-(2-{[(3,4-dichlorophenyl)methyl]amino}-7-oxo-6-(3-pyridyl)-8-hydropteridin-8-yl)ethyl]acetamide]
